Reference: ChEMBL document CHEMBL2413040, “Ligand/kappa-opioid receptor interactions: insights from the X-ray crystal structure” (Eur J Med Chem, 2013)

Experiment: Binding affinity to kappa opioid receptor in guinea pig cerebral cortex after 2.5 hrs
Assay type: tissue-based, Cavia porcellus

| Compound | Ki [nM] |
| --- | --- |
| CCCC[C@H](N)C(=O)N[C@@H](Cc1ccccc1)C(=O)N[C@H](Cc1c[nH]c2ccccc12)C(=O)N[C@@H](CC1CCCCC1)C(N)=O | 10000 |
| CCCC[C@H](N)C(=O)N[C@@H](Cc1ccc2ccccc2c1)C(=O)N[C@H](Cc1c[nH]c2ccccc12)C(=O)N[C@@H](CC1CCCCC1)C(N)=O | 10000 |
| CCCC[C@H](N)C(=O)N[C@@H](Cc1ccccc1)C(=O)N[C@@H](C(=O)N[C@@H](CCCNC(=N)N)C(N)=O)[C@@H](C)CC | 9.3 |
| CCCC[C@@H](NC(=O)[C@H](Cc1ccccc1)NC(=O)[C@@H](N)Cc1ccccc1)C(=O)N[C@@H](CC1CCCCC1)C(N)=O | 26 |
| CCCC[C@H](N)C(=O)N[C@@H](Cc1ccc2ccccc2c1)C(=O)N[C@H](CCCC)C(=O)N[C@@H](CC1CCCCC1)C(N)=O | 27 |
| CC[C@H](C)[C@@H](NC(=O)[C@H](Cc1ccc2ccccc2c1)NC(=O)[C@@H](N)Cc1ccccc1)C(=O)N[C@@H](CC1CCCCC1)C(N)=O | 53 |
| CCCC[C@H](N)C(=O)N[C@@H](Cc1ccc2ccccc2c1)C(=O)N[C@@H](C(=O)N[C@@H](CC1CCCCC1)C(N)=O)[C@@H](C)CC | 56 |
| CC[C@H](C)[C@@H](NC(=O)[C@H](Cc1ccccc1)NC(=O)[C@@H](N)Cc1ccccc1)C(=O)N[C@@H](CC1CCCCC1)C(N)=O | 64 |
| CCCC[C@H](N)C(=O)N[C@@H](Cc1ccccc1)C(=O)N[C@H](CCCC)C(=O)N[C@@H](CC1CCCCC1)C(N)=O | 71 |
| CCCC[C@H](N)C(=O)N[C@@H](Cc1ccccc1)C(=O)N[C@@H](C(=O)N[C@@H](CC1CCCCC1)C(N)=O)[C@@H](C)CC | 341 |
| N=C(N)NCCC[C@H](NC(=O)[C@@H](Cc1c[nH]c2ccccc12)NC(=O)[C@H](Cc1ccc2ccccc2c1)NC(=O)[C@@H](N)Cc1ccccc1)C(N)=O | 1150 |
| CCCC[C@H](N)C(=O)N[C@@H](Cc1ccc2ccccc2c1)C(=O)N[C@H](Cc1c[nH]c2ccccc12)C(=O)N[C@@H](CCCNC(=N)N)C(N)=O | 1760 |
| CCCC[C@H](N)C(=O)N[C@@H](Cc1ccccc1)C(=O)N[C@H](Cc1c[nH]c2ccccc12)C(=O)N[C@@H](CCCNC(=N)N)C(N)=O | 4550 |
| CCCC[C@@H](NC(=O)[C@H](Cc1ccccc1)NC(=O)[C@@H](N)Cc1ccccc1)C(=O)N[C@@H](CCCNC(=N)N)C(N)=O | 1.2 |
| CC[C@H](C)[C@@H](NC(=O)[C@H](Cc1ccccc1)NC(=O)[C@@H](N)Cc1ccccc1)C(=O)N[C@@H](CCCNC(=N)N)C(N)=O | 2.4 |
| CC[C@H](C)[C@@H](NC(=O)[C@H](Cc1ccc2ccccc2c1)NC(=O)[C@@H](N)Cc1ccccc1)C(=O)N[C@@H](CCCNC(=N)N)C(N)=O | 3.6 |
| CCCC[C@H](N)C(=O)N[C@@H](Cc1ccccc1)C(=O)N[C@H](CCCC)C(=O)N[C@@H](CCCNC(=N)N)C(N)=O | 4.2 |

The remaining compounds from weak to strong by Ki, led by results:

| Ki [nM] | Compound |
| --- | --- |
| 10000 | NC(=O)[C@H](CC1CCCCC1)NC(=O)[C@@H](Cc1c[nH]c2ccccc12)NC(=O)[C@H](Cc1ccccc1)NC(=O)[C@@H](N)Cc1ccccc1 |
| 6000 | NC(=O)[C@H](CC1CCCCC1)NC(=O)[C@@H](Cc1c[nH]c2ccccc12)NC(=O)[C@H](Cc1ccc2ccccc2c1)NC(=O)[C@@H](N)Cc1ccccc1 |
| 1140 | N=C(N)NCCC[C@H](NC(=O)[C@@H](Cc1c[nH]c2ccccc12)NC(=O)[C@H](Cc1ccccc1)NC(=O)[C@@H](N)Cc1ccccc1)C(N)=O |
| 33 | CCCC[C@@H](NC(=O)[C@H](Cc1ccc2ccccc2c1)NC(=O)[C@@H](N)Cc1ccccc1)C(=O)N[C@@H](CC1CCCCC1)C(N)=O |
| 7.1 | CCCC[C@@H](NC(=O)[C@H](Cc1ccc2ccccc2c1)NC(=O)[C@@H](N)Cc1ccccc1)C(=O)N[C@@H](CCCNC(=N)N)C(N)=O |
| 2.3 | CCCC[C@H](N)C(=O)N[C@@H](Cc1ccc2ccccc2c1)C(=O)N[C@H](CCCC)C(=O)N[C@@H](CCCNC(=N)N)C(N)=O |
| 1.5 | CCCC[C@H](N)C(=O)N[C@@H](Cc1ccc2ccccc2c1)C(=O)N[C@@H](C(=O)N[C@@H](CCCNC(=N)N)C(N)=O)[C@@H](C)CC |
